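Exposure lasted 48 hours, with cells grown in 96-well plates and compounds tested at five concentrations. At the GI50, growth is halved. At the TGI there is no net growth.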
Key:
Assay in all cases: inhibition of tumour cell growth, NCI panel, 48 h
[1] = test system: NCI-H522 lung
[2] = test system: MDA-MB-435
[3] = test system: UACC-62 melanoma
[4] = test system: LOX IMVI melanoma
[5] = test system: ACHN renal
[6] = test system: MOLT-4 leukemia
[7] = test system: A498 renal
[8] = test system: RXF 393 renal
[9] = test system: HL-60(TB) leukemia

Compound	TGI [1]	TGI [2]	TGI [3]	TGI [4]	TGI [5]	TGI [6]	TGI [7]	TGI [8]	TGI [9]	GI50 [1]	GI50 [2]	GI50 [3]	GI50 [4]	GI50 [5]	GI50 [7]	GI50 [8]	GI50 [6]	GI50 [9]
Cc1ccc(OCC2OC(n3cnc4nc(N)nc(Cl)c43)CC2Oc2ccc(C)cc2)cc1 (configuration not stated)	47.8 µM	> 100 µM	> 100 µM	> 100 µM	35 µM	52.7 µM	82.3 µM											
O=S(=O)(c1ccc(NC2=NC(c3ccc(O)cc3)(c3ccccc3O)c3ccccc32)cc1)c1ccc(NC2=NC(c3ccc(O)cc3)(c3ccccc3O)c3ccccc32)cc1 (configuration not stated)	4.76 µM	> 24.6 µM	> 100 µM	> 100 µM	> 100 µM	60.1 µM	44.8 µM	> 100 µM	5.09 µM									
N#CC1(C#N)NC(c2cccs2)C(C#N)(C#N)NC1c1cccs1 (configuration not stated)	88.4 µM	> 100 µM	57.9 µM	37.3 µM	> 100 µM	60.2 µM	74.6 µM	> 100 µM	41.3 µM									
Cc1cc(C)nc(SC2=C(Nc3ccc(C)c(Cl)c3)C(=O)N(Cc3ccccc3)C2=O)n1	> 160 µM	> 160 µM	> 160 µM	> 160 µM	> 160 µM		> 160 µM			> 160 µM	> 160 µM	> 160 µM	> 160 µM	> 160 µM	> 160 µM			
Cc1cccc(Nc2nn3c(=O)c4c5c(sc4nc3s2)CCCC5)c1	> 100 µM	> 100 µM	5.92 µM	23.1 µM	> 100 µM	> 100 µM		62.8 µM	> 100 µM									
C[n+]1cccc2c(=O)c3ccccc3oc21	> 100 µM	> 100 µM	> 100 µM	> 100 µM	> 100 µM		> 100 µM	> 100 µM	> 100 µM									
O=C1C[C@@H](C(=O)OCc2ccccc2)NC(=O)C[C@@H](C(=O)OCc2ccccc2)NC(=O)C[C@@H](C(=O)OCc2ccccc2)N1	> 100 µM	> 100 µM	> 100 µM	> 100 µM	> 62.9 µM	27.3 µM	> 95.1 µM	41.8 µM	9.88 µM									
O=c1cc(N2CCCC2)[nH]c(=O)n1Cc1ccccc1	> 100 µM	> 100 µM		> 100 µM	> 100 µM	> 100 µM			> 100 µM									
O=C1C(Cl)=C(OCCCl)C(=O)c2c(O)ccc(O)c21			14 µM	12.4 µM	10.4 µM	0.619 µM	34.8 µM	18.6 µM	0.197 µM									
COc1ccc(CC(N)c2ccc(OC)cc2)cc1 (configuration not stated)	> 100 µM	> 100 µM	> 100 µM	> 100 µM	> 100 µM	> 100 µM	> 100 µM	> 100 µM	> 100 µM									
O=C(N/N=C/C=C/c1ccc([N+](=O)[O-])o1)c1cc2ccccc2cc1O	2.72 µM	2.38 µM	2.77 µM	1.58 µM	9.39 µM	7.3 µM	8.95 µM	1.77 µM	11.3 µM	0.486 µM	0.506 µM	1.03 µM	0.356 µM	1.26 µM	2.48 µM	0.412 µM	1.18 µM	1.43 µM

— PubChem BioAssay (NCI)
